Where two headings read alike, the source gives them in different places.
Molecular target: CB1 (mutant) (Homo sapiens, UniProt P21554)
Experiment: R-SAT functional receptor assay, CB1 (mutant, truncated after amino acid 417)
Assay type: cell-based
Settings: R-SAT CB1; for IC50 / pIC50: receptor form (mutant or wild-type) not stated; for Emax / % Inhibition: receptor form not stated, relative to SR141716 (100%); for Emax: read-out: % Inhibition
[1] = Appendix A, read-out: pIC50 (converted)

Chain of CB1 (mutant) (P21554 1-417, change not shown): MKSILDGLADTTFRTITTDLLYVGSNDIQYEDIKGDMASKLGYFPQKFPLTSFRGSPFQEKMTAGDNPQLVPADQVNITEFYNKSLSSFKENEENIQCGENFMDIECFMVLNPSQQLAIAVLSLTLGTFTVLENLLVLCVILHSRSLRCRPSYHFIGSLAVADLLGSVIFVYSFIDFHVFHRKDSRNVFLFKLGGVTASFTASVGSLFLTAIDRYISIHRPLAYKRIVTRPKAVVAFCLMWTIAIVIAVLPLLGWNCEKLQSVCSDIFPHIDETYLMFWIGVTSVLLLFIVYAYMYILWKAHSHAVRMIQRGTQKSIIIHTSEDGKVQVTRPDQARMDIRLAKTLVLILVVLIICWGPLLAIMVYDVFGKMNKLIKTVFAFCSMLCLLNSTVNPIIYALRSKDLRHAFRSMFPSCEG

Row | Structure (SMILES) | IC50 [1] | Emax (Appendix A) | pIC50 (Appendix A) | IC50 (pIC50, Appendix A) | % Inhibition (Appendix A)
1 | CCCC1=Nc2cc(C(=O)NC(C)CCc3ccccc3)ccc2Sc2ccccc21 (centres unmarked) | 0.0398 µM | 95% | – | – | –
2 | O=C(NC1CCCC1)c1ccc2c(c1)N=C(c1ccccc1Cl)c1ccccc1S2 | 0.794 µM | 59% | – | – | –
3 | CCCC1=NC2=C(CCC(C(=O)NCCN(CC)CCNc3cc(Cl)ccc3C)=C2)Sc2ccccc21 | 0.158 µM | 113% | – | – | –
4 | O=C(NCc1ccccc1Br)c1ccc2c(c1)N=C(c1ccccc1F)c1ccccc1S2 [drawing 602] | 0.0501 µM | 65% | – | – | –
5 | CC(NC(=O)c1ccc2c(c1)N=C(c1ccc(Cl)cc1)c1ccccc1S2)c1ccccc1 (centres unmarked) [drawing 1107] | 0.0398 µM | 88% | – | – | –
6 | CON(C)C(=O)c1ccc2c(c1)N=C(c1ncccc1C)c1ccccc1S2 | – | 0% | 1.0 | – | –
7 | CCCCNC(=O)c1ccc2c(c1)N=C(c1ccc(OC)cc1)c1ccccc1S2 [drawing 887] | 0.0158 µM | 112% | – | – | –
8 | CCCC1=Nc2cc(C(=O)N3CCN(c4ccc(F)cc4)CC3)ccc2Sc2ccccc21 | 0.251 µM | 108% | – | – | –
9 | C=C(/C=C\C1=CN=C(CCC)c2ccccc2S1)C(=O)NC1CCCC1 | 0.0794 µM | 109% | – | – | –
10 | O=C(NN1CCCCC1)c1ccc2c(c1)N=C(N1CCOCC1)c1ccccc1S2 | – | 76% | – | – | –
11 | O=C(NCc1cccc(Cl)c1)c1ccc2c(c1)N=C(N1CCCCC1)c1cc(F)ccc1S2 [drawing 649] | 0.00501 µM | 107% | – | – | –
12 | O=C(NN1CCOCC1)c1ccc2c(c1)N=C(c1ccc(F)cc1)c1ccccc1S2 | 0.631 µM | 77% | – | – | –
13 | O=C(NN1CCCCC1)c1ccc2c(c1)N=C(c1ccccc1F)c1ccccc1S2 | – | 104% | – | 0.1 µM | –
14 | O=C(NCc1ccccn1)c1ccc2c(c1)N=C(N1CCCCC1)c1ccccc1S2 | 0.158 µM | 78% | – | – | –
15 | CCCC1=Nc2cc(C(=O)NCc3ccccc3)ccc2Sc2ccccc21 | 0.02 µM | 111% | – | – | –
16 | O=C(NC1CCCC1)c1ccc2c(c1)N=C(c1ccc(F)cc1)c1ccccc1S2 [drawing 720] | – | 117% | – | 0.0794 µM | –
17 | CC(CNC(=O)c1ccc2c(c1)N=C(N1CCCCC1)c1cc(F)ccc1S2)c1ccccc1 (centres unmarked) [drawing 1171] | 0.0398 µM | 102% | – | – | –
18 | CCOCCNC(=O)c1ccc2c(c1)N=C(c1ccc(Br)cc1)c1ccccc1S2 [drawing 1143] | 0.0398 µM | 85% | – | – | –
19 | O=C(NN1CCOCC1)c1ccc2c(c1)N=C(C1CCCCC1)c1ccccc1S2 | 0.0631 µM | 56% | – | – | –
20 | CCOC(=O)N1CCC(NC(=O)c2ccc3c(c2)N=C(CC(C)C)c2ccccc2S3)CC1 | 0.398 µM | 89% | – | – | –
21 | CCCSCCCNC(=O)c1ccc2c(c1)N=C(CCC)c1ccccc1S2 | 1.58 µM | 87% | – | – | –
22 | O=C(NC1CCC(F)(F)CC1)c1ccc2c(c1)N=C(c1cccc(F)c1)c1ccccc1S2 [drawing 659] | 0.00631 µM | 77% | – | – | –
23 | O=C(NCCc1cccc(Cl)c1)c1ccc2c(c1)N=C(c1cccc(Cl)c1)c1ccccc1S2 [drawing 779] | 0.01 µM | 107% | – | – | –
24 | C[C@@H]1CCC[C@H](C)N1NC(=O)c1ccc2c(c1)N=C(c1ccc(Cl)cc1F)c1ccccc1S2 [drawing 811] | 0.01 µM | 103% | – | – | –

Row | Structure (SMILES) | IC50 [1] | Emax (Appendix A) | pIC50 (Appendix A) | IC50 (pIC50, Appendix A) | % Inhibition (Appendix A)
25 | O=C(NCc1ccncc1)c1ccc2c(c1)N=C(c1ccc(Br)cc1)c1ccccc1S2 [drawing 586] | – | 84% | – | 0.0501 µM | –
26 | O=C(NCCc1cccnc1)c1ccc2c(c1)N=C(c1ccc(Cl)cc1Cl)c1ccccc1S2 | 0.2 µM | 74% | – | – | –
27 | CCOC(=O)N1CCC(NC(=O)c2ccc3c(c2)N=C(c2ccc(Cl)cc2)c2ccccc2S3)CC1 [drawing 676] | 0.0631 µM | – | – | – | 105%
28 | O=C(NCCc1cccnc1)c1ccc2c(c1)N=C(c1ccccc1F)c1ccccc1S2 | 0.0794 µM | 110% | – | – | –
29 | Cc1csc(CNC(=O)c2ccc3c(c2)N=C(c2cccc(C)n2)c2ccccc2S3)c1 [drawing 561] | 0.00251 µM | 85% | – | – | –
30 | CC(C)CCNC(=O)c1ccc2c(c1)N=C(c1ccc(F)cc1)c1ccccc1S2 [drawing 771] | – | 107% | – | 0.01 µM | –
31 | CCCCCC1=Nc2cc(C(=O)NC3CCN(C(=O)OCC)CC3)ccc2Sc2ccccc21 | 0.501 µM | 87% | – | – | –
32 | CC(C)CNC(=O)c1ccc2c(c1)N=C(c1ccc(Cl)cn1)c1ccc(F)cc1S2 [drawing 558] | 0.0501 µM | 123% | – | – | –
33 | CC(C)NC(=O)c1ccc2c(c1)N=C(c1ccc(F)cc1)c1ccccc1S2 [drawing 1079] | 0.0316 µM | 97% | – | – | –
34 | COc1ccc(C2=Nc3cc(C(=O)NCC(C)C)ccc3Sc3ccccc32)cc1 [drawing 835] | 0.0126 µM | 118% | – | – | –
35 | O=C(NCc1ccccc1Cl)c1ccc2c(c1)N=C(c1cccc(Cl)c1)c1ccccc1S2 [drawing 955] | 0.02 µM | 102% | – | – | –
36 | O=C(NC1CCCCC1)c1ccc2c(c1)N=C(c1cccc(F)c1)c1ccccc1S2 [drawing 941] | 0.02 µM | 127% | – | – | –
37 | O=C(NCCCC(F)(F)F)c1ccc2c(c1)N=C(c1ccsc1)c1ccccc1S2 [drawing 555] | 0.002 µM | 90% | – | – | –
38 | O=C(NN1CCCC1)c1ccc2c(c1)N=C(c1ccccc1F)c1ccccc1S2 | 0.2 µM | 69% | – | – | –
39 | COc1ccc(C2=Nc3cc(C(=O)NNC(=O)Cc4ccccc4)ccc3Sc3ccccc32)cc1 | 0.0501 µM | 77% | – | – | –
40 | CC(C)CCNC(=O)c1ccc2c(c1)N=C(c1cccc(Cl)c1)c1ccccc1S2 [drawing 567] | 0.00251 µM | 115% | – | – | –
41 | CC(C)CCNC(=O)c1ccc2c(c1)N=C(c1ccccc1Cl)c1ccccc1S2 [drawing 1053] | 0.0316 µM | 105% | – | – | –
42 | CON(C)C(=O)c1ccc2c(c1)N=C(c1ccc(Cl)s1)c1ccccc1S2 | 0.501 µM | 55% | – | – | –
43 | CCCC1=Nc2cc(C(=O)NCCc3ccc(SC)cc3)ccc2Sc2ccccc21 | 0.251 µM | 103% | – | – | –
44 | O=C(NCc1ccccc1Cl)c1ccc2c(c1)N=C(c1ccc(F)cc1)c1ccccc1S2 [drawing 1121] | 0.0398 µM | 89% | – | – | –
45 | O=C(NCc1ccc(F)cc1)c1ccc2c(c1)N=C(C1CCCCC1)c1ccccc1S2 [drawing 591] | 0.00316 µM | 102% | – | – | –
46 | O=C(NCc1cccc(Cl)c1)c1ccc2c(c1)N=C(N1CCC(F)CC1)c1ccccc1S2 [drawing 679] | 0.00631 µM | 108% | – | – | –
47 | COCCNC(=O)c1ccc2c(c1)N=C(c1ccccn1)c1ccccc1S2 | 0.398 µM | 71% | – | – | –
48 | O=C(NCc1ccc(Cl)cc1Cl)c1ccc2c(c1)N=C(c1ccc(F)cc1)c1ccccc1S2 [drawing 1057] | 0.0316 µM | 96% | – | – | –

Row | Structure (SMILES) | IC50 [1] | Emax (Appendix A) | pIC50 (Appendix A) | IC50 (pIC50, Appendix A) | % Inhibition (Appendix A)
49 | CCCCNC(=O)c1ccc2c(c1)N=C(C1CCCCC1)c1ccccc1S2 [drawing 937] | 0.02 µM | 106% | – | – | –
50 | O=C(NC1CCCCNC1=O)c1ccc2c(c1)N=C(c1ccc(F)cc1)c1ccccc1S2 (centres unmarked) | 0.251 µM | 83% | – | – | –
51 | Cc1ccc(CNC(=O)c2ccc3c(c2)N=C(c2ccc(Cl)c(Cl)c2)c2ccccc2S3)o1 [drawing 801] | 0.01 µM | 100% | – | – | –
52 | O=C(NN1CCCCC1)c1ccc2c(c1)N=C(c1cccc(Cl)c1)c1ccccc1S2 [drawing 1127] | 0.0398 µM | 106% | – | – | –
53 | O=C(NN1CCCCC1)c1ccc2c(c1)N=C(C1CCCCC1)c1ccccc1C2 | – | 87% | – | – | –
54 | O=C(NCc1ccc(F)cc1)c1ccc2c(c1)N=C(c1ccccc1)c1ccccc1S2 [drawing 745] | 0.00794 µM | 108% | – | – | –
55 | O=C(NCc1ccco1)c1ccc2c(c1)N=C(c1cccc(F)c1)c1ccccc1S2 [drawing 693] | – | 104% | – | 0.00631 µM | –
56 | CC(C)CNC(=O)c1ccc2c(c1)N=C(c1ccc(Cl)cc1F)c1ccccc1S2 [drawing 613] | 0.00398 µM | 110% | – | – | –
57 | O=C(NCc1ccc(Cl)cc1Cl)c1ccc2c(c1)N=C(N1CCCCC1)c1ccccc1S2 [drawing 1123] | 0.0398 µM | 101% | – | – | –
58 | COc1ccc(C2=Nc3cc(C(=O)NN4[C@H](C)CCC[C@@H]4C)ccc3Sc3ccccc32)cc1 [drawing 730] | 0.0794 µM | 99% | – | – | –
59 | O=C(NCc1ccc(F)cc1)c1ccc2c(c1)N=C(c1cccc(Cl)c1)c1ccccc1S2 [drawing 715] | – | 97% | – | 0.00794 µM | –
60 | CONC(=O)c1ccc2c(c1)N=C(c1sccc1C)c1ccccc1S2 | 0.501 µM | 45% | – | – | –
61 | COCCNC(=O)c1ccc2c(c1)N=C(c1ccccc1Cl)c1ccccc1S2 | 0.794 µM | 62% | – | – | –
62 | CCONC(=O)c1ccc2c(c1)N=C(c1ccc(Cl)s1)c1ccccc1S2 | 0.0501 µM | 97% | – | – | –
63 | CCCCN(C)C(=O)c1ccc2c(c1)N=C(c1ccc(Cl)cc1F)c1ccccc1S2 | – | 84% | – | – | –
64 | Cc1cccnc1C1=Nc2cc(C(=O)NCCc3cccnc3)ccc2Sc2ccccc21 | > 5.01 µM | 28% | – | – | –
65 | Cc1ccsc1C1=Nc2cc(C(=O)NCCc3cccnc3)ccc2Sc2ccccc21 [drawing 694] | 0.0631 µM | 121% | – | – | –
66 | O=C(NCCc1cccnc1)c1ccc2c(c1)N=C(c1ccc(Cl)c(Cl)c1)c1ccccc1S2 [drawing 825] | 0.0126 µM | 104% | – | – | –
67 | O=C(NCc1ccco1)c1ccc2c(c1)N=C(c1ccc(Cl)c(Cl)c1)c1ccccc1S2 [drawing 691] | 0.00631 µM | 97% | – | – | –
68 | CON(C)C(=O)c1ccc2c(c1)N=C(c1ccccc1Cl)c1ccccc1S2 | – | 10% | 1.0 | – | –
69 | CCCCN(C)CCCNC(=O)c1ccc2c(c1)N=C(CCC)c1ccccc1S2 | 0.794 µM | 124% | – | – | –
70 | O=C(NN1CCCCC1)c1ccc2c(c1)N=C(C1CCCCC1)c1ccccc1S2 [drawing 987] | – | – | – | – | 101%
71 | O=C(NCc1cccc(Cl)c1)c1ccc2c(c1)N=C(c1ccc(F)cc1)c1ccccc1S2(=O)=O [drawing 833] | 0.0126 µM | 108% | – | – | –
72 | CON(C)C(=O)c1ccc2c(c1)N=C(c1ccc(Cl)cc1Cl)c1ccccc1S2 | – | 18% | 1.0 | – | –

Source: patent US20080090805A1, “CB-1 MODULATING COMPOUNDS AND THEIR USE” (ACADIA PHARMACEUTICALS INC., priority 2005, published 2008)
